What was measured:
Type in all cases: in vivo
green bristlegrass [1] = experiment: Field test for weed control in a corn field; conditions: 150 g a.i./ha, after treatment
Procedure: (§1) The weed control efficacy field test was performed in a corn field with some of the N-benzylbenzamide-based compounds of general formula I or II with reference to the method of GB/T 17980.42-2000. […] Spray treatments were performed in the stage where 2 leaves to 5 leaves were grown for the corns after the sowing. Representative compounds in the examples were used to prepare emulsifiable concentrates (10%), and spray treatments were performed with the concentrates in water at a dosage of 150 g(a.i.)/ha, and repeated 4 times for each treatment, and the area was 20 m^2. Oil dispersion with 25% of mesotrione was used as a control agent and applied at a dosage of 150 g(a.i.)/h. […] The herbicidal activities of the agents were evaluated on a scale of 1-9 levels according to the symptoms and severity of damage to the test weeds.
(§2) Level 2: equivalent to 0 to 2.5% of the weed in the blank control area;
(§3) Level 3: equivalent to 2.6 to 5% of the weed in the blank control area;
(§4) Level 4: equivalent to 5.1 to 10% of the weed in the blank control area;
(§5) Level 5: equivalent to 10.1 to 15% of the weed in the blank control area;
(§6) Level 6: equivalent to 15.1 to 25% of the weed in the blank control area;
(§7) Level 7: equivalent to 25.1 to 35% of the weed in the blank control area;
(§8) Level 8: equivalent to 35.1 to 67.5% of the weed in the blank control area; and
(§9) Level 9: equivalent to 67.6 to 100% of the weed in the blank control area.

nutgrass flatsedge = experiment: Field test for weed control in a corn field; conditions: 150 g a.i./ha, after treatment
Procedure: as §1, §2, §3, §4, §5, §6, §7, §8, §9

Digitaria sanguinalis [2] = experiment: Field test for weed control in a corn field; conditions: 150 g a.i./ha, after treatment
Procedure: as §1, §2, §3, §4, §5, §6, §7, §8, §9

Amaranthus retroflexus [3] = experiment: Field test for weed control in a corn field; conditions: 150 g a.i./ha, 30 days after treatment
Procedure: as §1, §2, §3, §4, §5, §6, §7, §8, §9

Barnyard grass [4] = experiment: Field test for weed control in a corn field; conditions: 150 g a.i./ha, 30 days after treatment
Procedure: as §1, §2, §3, §4, §5, §6, §7, §8, §9

Acalypha australis = experiment: Field test for weed control in a corn field; conditions: 150 g a.i./ha, after treatment
Procedure: as §1, §2, §3, §4, §5, §6, §7, §8, §9

Chenopodium album = experiment: Field test for weed control in a corn field; conditions: 150 g a.i./ha, after treatment
Procedure: as §1, §2, §3, §4, §5, §6, §7, §8, §9

Solanum nigrum = experiment: Field test for weed control in a corn field; conditions: 150 g a.i./ha, 30 days after treatment
Procedure: as §1, §2, §3, §4, §5, §6, §7, §8, §9

goosegrass = experiment: Field test for weed control in a corn field; conditions: 150 g a.i./ha, after treatment
Procedure: as §1, §2, §3, §4, §5, §6, §7, §8, §9

Convolvulus arvensis = experiment: Field test for weed control in a corn field; conditions: 150 g a.i./ha, after treatment
Procedure: as §1, §2, §3, §4, §5, §6, §7, §8, §9

Portulaca oleracea = experiment: Field test for weed control in a corn field; conditions: 150 g a.i./ha, after treatment
Procedure: as §1, §2, §3, §4, §5, §6, §7, §8, §9

green bristlegrass [5] = experiment: Herbicidal activity test for indoor pre-emergence soil treatment; set-up: key: level 1-9; higher = more weed remaining vs blank control; conditions: 150 g a.i./ha, visual inspection 21 days after treatment
Procedure: (§10) The herbicidal activity test for indoor pre-emergence soil treatment was performed with some of the N-benzylbenzamide-based compounds of general formula I or II with reference to the method of NY/T 1155.3-2006. Neutral sandy loam soil having an organic content of ≤2% was added to fill ⅘ of the pot, and the soil was completely moistened by infiltrating irrigation from the bottom of the pot. The seeds of the test weed were evenly spread on the soil surface, and then covered by 0.5 cm to 2.0 cm of soil depending on the seed size. Representative compounds in the examples were used to prepare emulsifiable concentrates (10%), and spray treatments to the soil were performed 24 hours after the sowing with the test agents diluted with water, at a spraying dosage of 150 g(a.i.)/ha. Then, the results were investigated by visual inspection 21 days after the treatments. The herbicidal activity of the agent was evaluated on a scale of 1-9 levels according to the symptoms and severity of damage to the test weeds.
as §2, §3, §4, §5, §6, §7, §8, §9

Piemarker [6] = experiment: as above; set-up: key: level 1-9; higher = more weed remaining vs blank control; conditions: 150 g a.i./ha, visual inspection 21 days after treatment
Procedure: as §10, §2, §3, §4, §5, §6, §7, §8, §9

Barnyard grass [7] = experiment: as above; set-up: key: level 1-9; higher = more weed remaining vs blank control; conditions: 150 g a.i./ha, visual inspection 21 days after treatment
Procedure: as §10, §2, §3, §4, §5, §6, §7, §8, §9

green bristlegrass [8] = experiment: Herbicidal activity test for indoor post-emergence spraying on stems and leaves; set-up: key: grade level by weed remaining vs blank control, e.g. 5 = 10.1-15%; conditions: 150 g a.i./ha, visual inspection 21 days after treatment
Procedure: (§11) The post-emergence herbicidal activity test was performed with some of the N-benzylbenzamide-based compounds of general formula I or II with reference to the method of NY/T 1155.4-2006. […] After the sowing, the weed was moved to a greenhouse for regular cultivation. […] Then, the results were investigated by visual inspection 21 days after the treatments. […] Level 5: equivalent to 10.1 to 15% of the weed in the blank control area; Level 6: equivalent to 15.1 to 25% of the weed in the blank control area; Level 7: equivalent to 25.1 to 35% of the weed in the blank control area; Level 8: equivalent to 35.1 to 67.5% of the weed in the blank control area; and […]

Digitaria sanguinalis [9] = experiment: as above; set-up: key: grade level by weed remaining vs blank control, e.g. 5 = 10.1-15%; conditions: 150 g a.i./ha, visual inspection 21 days after treatment
Procedure: as §11

Piemarker [10] = experiment: as above; set-up: key: grade level by weed remaining vs blank control, e.g. 5 = 10.1-15%; conditions: 150 g a.i./ha, visual inspection 21 days after treatment
Procedure: as §11

Humulus scandens [11] = experiment: as above; set-up: key: grade level by weed remaining vs blank control, e.g. 5 = 10.1-15%; conditions: 150 g a.i./ha, visual inspection 21 days after treatment
Procedure: as §11

Amaranthus retroflexus [12] = experiment: as above; set-up: key: grade level by weed remaining vs blank control, e.g. 5 = 10.1-15%; conditions: 150 g a.i./ha, visual inspection 21 days after treatment
Procedure: as §11

Barnyard grass [13] = experiment: as above; set-up: key: grade level by weed remaining vs blank control, e.g. 5 = 10.1-15%; conditions: 150 g a.i./ha, visual inspection 21 days after treatment
Procedure: as §11

Humulus scandens [14] = experiment: Herbicidal activity test for indoor pre-emergence soil treatment; conditions: 150 g a.i./ha, visual inspection 21 days after treatment
Procedure: as §10, §2, §3, §4, §5, §6, §7, §8, §9

Digitaria sanguinalis [15] = experiment: as above; set-up: key: 1-9 levels; higher = more weed remaining vs blank control; conditions: 150 g a.i./ha, visual inspection 21 days after treatment
Procedure: as §10, §2, §3, §4, §5, §6, §7, §8, §9

Amaranthus retroflexus [16] = experiment: as above; set-up: key: 1-9 levels; higher = more weed remaining vs blank control; conditions: 150 g a.i./ha, visual inspection 21 days after treatment
Procedure: as §10, §2, §3, §4, §5, §6, §7, §8, §9

Broadleaf weed = experiment: Post-emergence herbicidal activity test in a paddy field; set-up: key: level scale; higher level = more weed left vs blank control; conditions: 150 g a.i./ha (penoxsulam control 250 g(a.i.)/h)
Procedure: (§12) The post-emergence herbicidal activity test was performed in a paddy field with some of the N-benzylbenzamide-based compounds of general formula I or II with reference to the method of GB/T 17980.40-2000. […] Spray treatments were performed in the stage where 4 leaves to 5 leaves were grown for the rice seedlings which was about 1 month after the sowing. Representative compounds in the examples were used to prepare emulsifiable concentrates (10%), and spray treatments were performed with the concentrates in water at a dosage of 150 g(a.i.)/ha, and repeated 4 times for each treatment, and the area was 50 m^2. 25 g/L of penoxsulam suspension was used as a control agent and applied at a dosage of 250 g(a.i.)/h. The results were investigated by a value estimating survey method 15 days and 30 days after the treatments. The relative weed population quantities were estimated by comparing each agent treated area with an adjacent blank control area, and the results of which were investigated with the following grading standard method using the overall coverage of the weed population as an indicator.
as §2, §3, §4, §5, §6, §7, §8, §9

Gramineae = experiment: as above; set-up: key: level scale; higher level = more weed left vs blank control; conditions: 150 g a.i./ha (penoxsulam control 250 g(a.i.)/h)
Procedure: as §12, §2, §3, §4, §5, §6, §7, §8, §9

Cyperaceae = experiment: as above; set-up: key: level scale; higher level = more weed left vs blank control; conditions: 150 g a.i./ha (penoxsulam control 250 g(a.i.)/h)
Procedure: as §12, §2, §3, §4, §5, §6, §7, §8, §9

Structure (SMILES)	Post-emergence weed control effect, Green bristlegrass (green bristlegrass [1])	Post-emergence weed control effect, Nutgrass flatsedge (nutgrass flatsedge)	Post-emergence weed control effect, Digitaria sanguinalis (Digitaria sanguinalis [2])	Post-emergence weed control effect, Amaranthus retroflexus (Amaranthus retroflexus [3])	Post-emergence weed control effect, Barnyard grass (Barnyard grass [4])	Post-emergence weed control effect, Acalypha australis (Acalypha australis)	Post-emergence weed control effect, Chenopodium album (Chenopodium album)	Post-emergence weed control effect, Solanum nigrum (Solanum nigrum)	Post-emergence weed control effect, Goose grass (goosegrass)	Post-emergence weed control effect, Convolvulus arvensis (Convolvulus arvensis)	Post-emergence weed control effect, Portulaca oleracea (Portulaca oleracea)	Herbicidal Activity Green bristlegrass (green bristlegrass [5])	Herbicidal Activity Piemarker (Piemarker [6])	Herbicidal Activity Barnyard grass (Barnyard grass [7])	Herbicidal Activity Green bristlegrass (green bristlegrass [8])	Herbicidal Activity Digitaria sanguinalis (Digitaria sanguinalis [9])	Herbicidal Activity Piemarker (Piemarker [10])	Herbicidal Activity Humulus scandens (Humulus scandens [11])	Herbicidal Activity Amaranthus retroflexus (Amaranthus retroflexus [12])	Herbicidal Activity Barnyard grass (Barnyard grass [13])	further results
COc1ncccc1C(=O)NCc1cccc(Cl)c1 [Compound A92]	2 (equivalent to 0 to 2.5% of the weed in the blank control area)	2 (equivalent to 0 to 2.5% of the weed in the blank control area)	2 (equivalent to 0 to 2.5% of the weed in the blank control area)	1	1	2 (equivalent to 0 to 2.5% of the weed in the blank control area)	1	2 (equivalent to 0 to 2.5% of the weed in the blank control area)	1	1	1	1	1	1	1	1	1	1	1	1	Herbicidal Activity Humulus scandens (Humulus scandens [14]): 2 (equivalent to 0 to 2.5% of the weed in the blank control area); Herbicidal Activity Digitaria sanguinalis (Digitaria sanguinalis [15]): 1; Herbicidal Activity Amaranthus retroflexus (Amaranthus retroflexus [16]): 1; Herbicidal activity 15 days after treatment Broadleaf weed (Broadleaf weed): 1; Herbicidal activity 30 days after treatment Broadleaf weed (Broadleaf weed): 1; Herbicidal activity 15 days after treatment Gramineae (Gramineae): 2 (equivalent to 0 to 2.5% of the weed in the blank control area); Herbicidal activity 30 days after treatment Gramineae (Gramineae): 2 (equivalent to 0 to 2.5% of the weed in the blank control area); Herbicidal activity 15 days after treatment Cyperaceae (Cyperaceae): 1; Herbicidal activity 30 days after treatment Cyperaceae (Cyperaceae): 1
COc1ccc(OC)c(C(=O)NCc2cc(F)cc(F)c2)c1 [Compound A24]	1	3 (equivalent to 2.6 to 5% of the weed in the blank control area)	2 (equivalent to 0 to 2.5% of the weed in the blank control area)	1	1	3 (equivalent to 2.6 to 5% of the weed in the blank control area)	1	2 (equivalent to 0 to 2.5% of the weed in the blank control area)	2 (equivalent to 0 to 2.5% of the weed in the blank control area)	1	1	1	1	1	1	1	1	1	1	1	Herbicidal Activity Humulus scandens (Humulus scandens [14]): 1; Herbicidal Activity Digitaria sanguinalis (Digitaria sanguinalis [15]): 1; Herbicidal Activity Amaranthus retroflexus (Amaranthus retroflexus [16]): 1; Herbicidal activity 15 days after treatment Broadleaf weed (Broadleaf weed): 1; Herbicidal activity 30 days after treatment Broadleaf weed (Broadleaf weed): 1; Herbicidal activity 15 days after treatment Gramineae (Gramineae): 1; Herbicidal activity 30 days after treatment Gramineae (Gramineae): 1; Herbicidal activity 15 days after treatment Cyperaceae (Cyperaceae): 1; Herbicidal activity 30 days after treatment Cyperaceae (Cyperaceae): 1

— patent publication US20220330549A1, “USE OF N-BENZYLBENZAMIDE-BASED COMPOUND AS HERBICIDE” (Northwest A&F University, priority 2020, published 2022)
